Measurements reported in PubChem BioAssay (NCI).
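Test compounds were applied to cells in 96-well plates for 48 hours at 5 doses. Here, GI50 denotes the concentration required for 50% inhibition of growth. TGI denotes the concentration required for complete inhibition of growth.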

Experiments:
Assay in all cases: NCI-60 cell line screen, 48 h
[1] = system: MCF7 breast
[2] = system: SNB-19 CNS
[3] = system: OVCAR-4 ovarian
[4] = system: HCT-15 colon
[5] = system: SK-OV-3 ovarian
[6] = system: RXF 393 renal
[7] = system: T-47D breast
[8] = system: HL-60(TB) leukemia
[9] = system: UACC-62 melanoma

Row | SMILES | TGI [1] [µM] | TGI [2] [µM] | TGI [3] [µM] | TGI [4] [µM] | TGI [5] [µM] | TGI [6] [µM] | TGI [7] [µM] | TGI [8] [µM] | TGI [9] [µM] | GI50 [1] [µM] | GI50 [2] [µM] | GI50 [4] [µM] | GI50 [6] [µM] | GI50 [7] [µM] | GI50 [8] [µM] | GI50 [9] [µM]
1 | CCOC(=O)C1=CN(Cc2ccccc2)C2ON=C(c3ccc(Cl)cc3)C2C1 (centres undefined) | > 64.6 | > 100 | > 77.8 | > 47.2 | > 85.9 | > 67.6 | 15.2 | > 47.1 | > 69.2 | – | – | – | – | – | – | –
2 | c1ccc2c[n+](Cc3ccnc4ccccc34)ccc2c1 | > 100 | > 100 | > 100 | > 100 | > 100 | > 100 | > 100 | – | > 100 | – | – | – | – | – | – | –
3 | Cc1cc(NS(=O)(=O)c2ccc(N=Nc3c(Nc4ccccc4)nn(-c4ccc(S(=O)(=O)Nc5ccncn5)cc4)c3C)cc2)no1 | > 100 | > 100 | > 100 | > 100 | > 100 | – | > 100 | – | > 100 | – | – | – | – | – | – | –
4 | CCOc1ccnc2c(OC)c(C)c3nc4ccccc4nc3c12 | > 100 | > 100 | > 100 | > 100 | > 100 | > 100 | 67 | > 100 | – | – | – | – | – | – | – | –
5 | COc1cc2oc(=O)cc(C)c2c(OC)c1OC | > 100 | > 100 | > 100 | > 100 | > 100 | – | – | – | > 100 | – | – | – | – | – | – | –
6 | CNC(=S)c1nnsc1N | > 100 | – | > 100 | > 100 | > 100 | > 100 | > 100 | 0.0686 | > 100 | – | – | – | – | – | – | –
7 | CCN(CC)C(=O)CCNC(C)Cc1c[nH]c2ccccc12 (centres undefined) | – | > 100 | > 100 | > 100 | > 100 | > 100 | > 100 | > 100 | > 100 | – | – | – | – | – | – | –
8 | CC(C)[Si](CC1=CCCCC12C(=O)N(COCC[Si](C)(C)C)c1ccccc12)(C(C)C)C(C)C (centres undefined) | > 100 | > 100 | > 100 | > 100 | > 100 | 54.2 | 96.9 | – | > 100 | – | – | – | – | – | – | –
9 | Cc1csc(CP(=O)(OC(C)C)OC(C)C)n1 | > 100 | > 100 | > 100 | > 100 | > 100 | > 100 | > 100 | > 100 | – | – | – | – | – | – | – | –
10 | COc1cc(/C=C2\CCCC3=C2N=C2SC=NN2C3c2cc(OC)c(OC)c(OC)c2)cc(OC)c1OC (centres undefined) | > 100 | > 100 | – | 5.91 | – | 4.74 | > 100 | 9.49 | 3.66 | 3.82 | 4.44 | 2.25 | 2.2 | 3.9 | 2.93 | 1.68
11 | COc1ccc2oc(=O)c(-c3nc4ccccc4s3)cc2c1 | – | > 100 | 53.6 | > 100 | 36.5 | 31 | > 100 | > 100 | > 100 | – | – | – | – | – | – | –
12 | COC(=O)c1cc(OCc2cc(OCc3ccc(Br)cc3)cc(OCc3ccc(Br)cc3)c2)cc(OCc2cc(OCc3ccc(Br)cc3)cc(OCc3ccc(Br)cc3)c2)c1 | > 100 | > 100 | > 100 | > 100 | > 100 | – | > 100 | – | > 100 | – | – | – | – | – | – | –
13 | Nc1[nH]nc2c1Cc1c(n(Cc3ccc(Cl)cc3)c3ccccc13)C(=O)N2 | 26.9 | – | 32 | 16.8 | 34.6 | 25.9 | 28.9 | 10.2 | > 100 | – | – | – | – | – | – | –
14 | Cc1ccc(S(=O)(=O)N/N=C2/C3CC4CCC2C4C3)cc1 (centres undefined) | > 100 | – | > 100 | > 100 | > 100 | > 100 | > 100 | – | > 100 | – | – | – | – | – | – | –
15 | COc1ccc(-c2nc3ccccc3c(=O)[nH]2)cc1OC | > 100 | 79 | > 100 | > 100 | > 100 | 68.1 | > 100 | – | > 100 | – | – | – | – | – | – | –
16 | O=C(CN1CCOCC1)c1ccc2c(c1)oc(=O)n2CCN1CCCCC1 | > 100 | > 100 | – | > 100 | > 100 | > 100 | – | > 100 | > 100 | – | – | – | – | – | – | –
17 | CC(C)N=C(NC#N)NS(=O)(=O)c1cnccc1NC1CCCCCCC1 | > 100 | > 100 | > 100 | > 100 | > 100 | > 100 | > 100 | – | > 100 | – | – | – | – | – | – | –
18 | Cc1c(OCc2cccc3ccccc23)ccc2c(=O)cc(S)oc12 | > 100 | > 100 | > 100 | > 100 | – | > 100 | > 100 | 59.7 | 73.3 | – | – | – | – | – | – | –
19 | C=C(C)[C@H]1C=C[C@@H](OC(C)=O)[C@@]2(COC(C)=O)[C@H](OC(=O)CCC)[C@H]3[C@@H](OC(C)=O)[C@@H](C)C[C@]3(O)C(=O)[C@@](C)(OC(C)=O)[C@H]12 | > 100 | > 100 | > 100 | > 100 | – | > 100 | 89.7 | > 100 | > 100 | – | – | – | – | – | – | –
20 | CSc1cc(Cl)c(C)cc1S(=O)(=O)NC(=O)NNc1cnc2ccccc2n1 | > 100 | > 100 | > 100 | > 100 | > 100 | > 100 | > 100 | – | – | – | – | – | – | – | – | –
21 | Nc1nc(=O)n(C2CC(O)C(CO)O2)c2nc(-c3ccc(-c4ccccc4)cc3)cnc12 (centres undefined) | 54.1 | 91.1 | > 100 | > 100 | > 100 | > 100 | 57.4 | – | 61.1 | – | – | – | – | – | – | –
22 | CCOC1=NC(C(F)(F)F)(C(F)(F)F)N=C(/N=C(/N)N(C)C(C(C)C)P(=O)(OC(C)C)OC(C)C)O1 (centres undefined) | > 100 | > 100 | – | > 100 | > 100 | > 100 | > 100 | 80.1 | > 100 | – | – | – | – | – | – | –
23 | C[C@H](N)C(=O)Nc1ccc(-c2nc3ccccc3s2)cc1Cl | – | 30.4 | – | 62.4 | 32.7 | 30.2 | – | – | 31.1 | – | – | – | – | – | – | –
24 | O=C(CCCN1CCC(Nc2ccc(F)cc2)(c2nnnn2C2CCCCC2)CC1)c1ccc(F)cc1 | 33.1 | 36 | 25.5 | 42.4 | 11.5 | 25.5 | – | 40.4 | 11.2 | – | – | – | – | – | – | –
25 | O=C(O)Cc1ccc(-n2nnc3c(=O)[nH][nH]c(=O)c32)cc1 | > 100 | > 100 | > 100 | > 100 | – | – | – | > 100 | – | – | – | – | – | – | – | –
